Test results: ChEMBL document CHEMBL1156421, “ApoA-I mimetic peptides with differing ability to inhibit atherosclerosis also exhibit differences in their interactions with membrane bilayers” (J Biol Chem, 2007)

Tests used:
[1] = Elimination half life in apoE deficient C57BL/6J mouse at 20 ug, ip; type: ADME, organism-based; settings: in vivo
Mus musculus [2] = assay: Antiinflammatory activity in apoE deficient C57BL/6J mouse assessed as inhibition of atherosclerosis lesion area at 20 ug/day, ip administered for 4 weeks measured after 6 weeks; type: functional
Mus musculus [3] = assay: Cmax in apoE deficient C57BL/6J mouse at 20 ug, ip; type: ADME, organism-based; design: dose 20 ug, route intraperitoneal; settings: in vivo, at 20 µg
[4] = Time to Cmax in apoE deficient C57BL/6J mouse at 20 ug, ip; type: ADME, organism-based; settings: in vivo

half-life [1] [min]	Cmax (Mus musculus [3]) [%]	Tmax [4] [min]	SMILES	Activity (Mus musculus [2]) [um2]
126	12.29	28.8	CC(C)C[C@H](NC(=O)[C@H](Cc1c[nH]c2ccccc12)NC(=O)[C@H](CC(=O)O)NC([14CH3])=O)C(=O)N[C@@H](CCCCN)C(=O)N[C@@H](C)C(=O)N[C@@H](Cc1ccccc1)C(=O)N[C@@H](Cc1ccc(O)cc1)C(=O)N[C@@H](CC(=O)O)C(=O)N[C@@H](CCCCN)C(=O)N[C@H](C(=O)N[C@@H](C)C(=O)N[C@@H](CCC(=O)O)C(=O)N[C@@H](CCCCN)C(=O)N[C@@H](Cc1ccccc1)C(=O)N[C@@H](CCCCN)C(=O)N[C@@H](CCC(=O)O)C(=O)N[C@@H](C)C(=O)N[C@@H](Cc1ccccc1)C(N)=O)C(C)C	20400
32.4	5.52	16.8	CC(C)C[C@H](NC(=O)[C@H](Cc1ccccc1)NC(=O)[C@H](CCC(=O)O)NC(=O)[C@H](CCCCN)NC(=O)[C@H](Cc1ccccc1)NC(=O)[C@H](C)NC(=O)[C@H](CCC(=O)O)NC(=O)[C@H](C)NC(=O)[C@H](Cc1ccccc1)NC(=O)[C@H](CCCCN)NC(=O)[C@H](CC(=O)O)NC(=O)[C@H](Cc1ccc(O)cc1)NC(=O)[C@@H](NC(=O)[C@H](C)NC(=O)[C@H](CCCCN)NC(=O)[C@H](Cc1c[nH]c2ccccc12)NC(=O)[C@H](CCCCN)NC(=O)[C@H](CC(=O)O)NC([14CH3])=O)C(C)C)C(N)=O	15800
